Test results: ChEMBL document CHEMBL5291721, “A preclinical secondary pharmacology resource illuminates target-adverse drug reaction associations of marketed drugs” (Nat Commun, 2023)

How the values were obtained:
[1] = target: Sodium channel protein type 5 subunit alpha (Homo sapiens, UniProt Q14524); assay type: functional, cell-based
[2] = target: T1, Neuropeptide Y receptor type 2 (Homo sapiens, UniProt P49146)
T1 sequence (P49146 whole entry): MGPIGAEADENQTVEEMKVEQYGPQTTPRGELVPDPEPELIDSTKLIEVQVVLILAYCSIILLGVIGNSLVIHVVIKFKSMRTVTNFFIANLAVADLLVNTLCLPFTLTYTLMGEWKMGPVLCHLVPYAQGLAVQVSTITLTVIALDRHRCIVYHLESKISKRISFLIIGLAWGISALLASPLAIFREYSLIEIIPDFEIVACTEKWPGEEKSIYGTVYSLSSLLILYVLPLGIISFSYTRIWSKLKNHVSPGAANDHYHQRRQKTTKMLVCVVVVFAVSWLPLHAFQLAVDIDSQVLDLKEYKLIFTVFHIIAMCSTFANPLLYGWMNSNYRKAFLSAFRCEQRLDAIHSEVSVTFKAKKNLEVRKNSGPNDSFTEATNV

Progesterone receptor = target: T2, Progesterone receptor (Homo sapiens, UniProt P06401)
T2 sequence (P06401 whole entry): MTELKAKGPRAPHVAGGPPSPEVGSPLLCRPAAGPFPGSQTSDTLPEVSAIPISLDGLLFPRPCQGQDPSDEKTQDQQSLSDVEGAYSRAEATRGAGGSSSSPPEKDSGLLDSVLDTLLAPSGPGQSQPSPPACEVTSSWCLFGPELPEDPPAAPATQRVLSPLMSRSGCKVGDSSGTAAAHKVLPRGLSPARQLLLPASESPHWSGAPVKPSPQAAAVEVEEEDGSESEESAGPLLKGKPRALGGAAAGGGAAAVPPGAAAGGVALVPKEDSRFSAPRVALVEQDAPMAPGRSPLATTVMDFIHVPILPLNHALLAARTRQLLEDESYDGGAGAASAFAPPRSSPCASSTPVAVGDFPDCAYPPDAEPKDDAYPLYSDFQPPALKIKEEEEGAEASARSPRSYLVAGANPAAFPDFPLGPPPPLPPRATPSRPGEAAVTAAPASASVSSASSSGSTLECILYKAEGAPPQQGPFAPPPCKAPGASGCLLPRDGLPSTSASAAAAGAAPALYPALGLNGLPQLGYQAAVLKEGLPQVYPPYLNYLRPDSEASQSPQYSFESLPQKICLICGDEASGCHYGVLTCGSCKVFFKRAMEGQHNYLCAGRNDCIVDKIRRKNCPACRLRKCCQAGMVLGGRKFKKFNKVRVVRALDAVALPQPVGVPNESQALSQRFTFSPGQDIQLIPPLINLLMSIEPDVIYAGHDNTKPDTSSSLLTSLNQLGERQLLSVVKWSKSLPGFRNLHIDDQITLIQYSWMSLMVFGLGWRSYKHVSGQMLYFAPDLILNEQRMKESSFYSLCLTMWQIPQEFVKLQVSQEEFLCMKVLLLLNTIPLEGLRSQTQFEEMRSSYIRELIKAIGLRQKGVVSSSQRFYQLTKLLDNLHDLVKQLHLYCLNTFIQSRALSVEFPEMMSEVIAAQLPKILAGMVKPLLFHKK

[3] = target: T3, Peroxisome proliferator-activated receptor gamma (Homo sapiens, UniProt P37231); assay type: functional
T3 sequence (P37231 whole entry): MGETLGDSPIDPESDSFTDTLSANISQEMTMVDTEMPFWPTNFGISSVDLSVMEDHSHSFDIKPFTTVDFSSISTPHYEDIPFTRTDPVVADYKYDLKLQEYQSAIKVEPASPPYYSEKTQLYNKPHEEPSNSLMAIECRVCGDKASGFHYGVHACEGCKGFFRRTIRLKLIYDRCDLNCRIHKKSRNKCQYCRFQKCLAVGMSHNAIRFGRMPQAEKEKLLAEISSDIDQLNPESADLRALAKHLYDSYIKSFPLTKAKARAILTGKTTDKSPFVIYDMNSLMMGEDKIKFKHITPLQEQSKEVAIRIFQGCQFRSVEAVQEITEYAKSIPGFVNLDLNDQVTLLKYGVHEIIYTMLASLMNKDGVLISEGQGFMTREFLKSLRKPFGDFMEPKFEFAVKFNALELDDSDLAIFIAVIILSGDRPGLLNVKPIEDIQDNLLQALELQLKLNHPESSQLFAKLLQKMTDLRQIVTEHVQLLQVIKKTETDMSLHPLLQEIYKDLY

Estrogen receptor = target: T4, Estrogen receptor (Homo sapiens, UniProt P03372)
T4 sequence (P03372 whole entry): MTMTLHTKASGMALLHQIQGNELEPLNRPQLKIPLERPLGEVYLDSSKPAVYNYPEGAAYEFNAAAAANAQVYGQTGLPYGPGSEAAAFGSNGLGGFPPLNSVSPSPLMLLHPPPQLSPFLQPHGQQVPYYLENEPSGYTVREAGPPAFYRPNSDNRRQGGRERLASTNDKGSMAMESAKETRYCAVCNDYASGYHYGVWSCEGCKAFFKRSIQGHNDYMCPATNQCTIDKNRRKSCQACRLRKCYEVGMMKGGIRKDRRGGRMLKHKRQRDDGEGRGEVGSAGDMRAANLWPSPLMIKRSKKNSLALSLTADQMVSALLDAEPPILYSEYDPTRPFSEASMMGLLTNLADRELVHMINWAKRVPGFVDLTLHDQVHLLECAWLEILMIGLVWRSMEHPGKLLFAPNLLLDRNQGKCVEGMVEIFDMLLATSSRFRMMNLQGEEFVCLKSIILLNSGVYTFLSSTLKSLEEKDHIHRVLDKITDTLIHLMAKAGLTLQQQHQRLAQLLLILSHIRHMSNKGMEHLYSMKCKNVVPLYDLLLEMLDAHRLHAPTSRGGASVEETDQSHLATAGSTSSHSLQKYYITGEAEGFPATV

[4] = target: T5, Alpha-2B adrenergic receptor (Homo sapiens, UniProt P18089)
T5 sequence (P18089 whole entry): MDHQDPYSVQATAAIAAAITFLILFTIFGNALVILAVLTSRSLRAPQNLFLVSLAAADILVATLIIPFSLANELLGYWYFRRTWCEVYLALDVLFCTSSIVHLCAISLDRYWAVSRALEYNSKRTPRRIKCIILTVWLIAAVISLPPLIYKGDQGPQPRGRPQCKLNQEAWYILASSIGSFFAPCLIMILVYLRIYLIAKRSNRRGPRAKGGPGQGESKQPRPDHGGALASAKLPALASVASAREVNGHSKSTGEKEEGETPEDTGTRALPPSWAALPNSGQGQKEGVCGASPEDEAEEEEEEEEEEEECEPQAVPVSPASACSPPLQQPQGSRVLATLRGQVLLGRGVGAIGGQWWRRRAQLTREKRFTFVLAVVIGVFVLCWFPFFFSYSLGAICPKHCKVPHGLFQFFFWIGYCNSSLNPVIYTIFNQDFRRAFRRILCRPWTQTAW
Note: assay procedure not described here.

Chain of Sodium channel protein type 5 subunit alpha (Q14524 whole entry): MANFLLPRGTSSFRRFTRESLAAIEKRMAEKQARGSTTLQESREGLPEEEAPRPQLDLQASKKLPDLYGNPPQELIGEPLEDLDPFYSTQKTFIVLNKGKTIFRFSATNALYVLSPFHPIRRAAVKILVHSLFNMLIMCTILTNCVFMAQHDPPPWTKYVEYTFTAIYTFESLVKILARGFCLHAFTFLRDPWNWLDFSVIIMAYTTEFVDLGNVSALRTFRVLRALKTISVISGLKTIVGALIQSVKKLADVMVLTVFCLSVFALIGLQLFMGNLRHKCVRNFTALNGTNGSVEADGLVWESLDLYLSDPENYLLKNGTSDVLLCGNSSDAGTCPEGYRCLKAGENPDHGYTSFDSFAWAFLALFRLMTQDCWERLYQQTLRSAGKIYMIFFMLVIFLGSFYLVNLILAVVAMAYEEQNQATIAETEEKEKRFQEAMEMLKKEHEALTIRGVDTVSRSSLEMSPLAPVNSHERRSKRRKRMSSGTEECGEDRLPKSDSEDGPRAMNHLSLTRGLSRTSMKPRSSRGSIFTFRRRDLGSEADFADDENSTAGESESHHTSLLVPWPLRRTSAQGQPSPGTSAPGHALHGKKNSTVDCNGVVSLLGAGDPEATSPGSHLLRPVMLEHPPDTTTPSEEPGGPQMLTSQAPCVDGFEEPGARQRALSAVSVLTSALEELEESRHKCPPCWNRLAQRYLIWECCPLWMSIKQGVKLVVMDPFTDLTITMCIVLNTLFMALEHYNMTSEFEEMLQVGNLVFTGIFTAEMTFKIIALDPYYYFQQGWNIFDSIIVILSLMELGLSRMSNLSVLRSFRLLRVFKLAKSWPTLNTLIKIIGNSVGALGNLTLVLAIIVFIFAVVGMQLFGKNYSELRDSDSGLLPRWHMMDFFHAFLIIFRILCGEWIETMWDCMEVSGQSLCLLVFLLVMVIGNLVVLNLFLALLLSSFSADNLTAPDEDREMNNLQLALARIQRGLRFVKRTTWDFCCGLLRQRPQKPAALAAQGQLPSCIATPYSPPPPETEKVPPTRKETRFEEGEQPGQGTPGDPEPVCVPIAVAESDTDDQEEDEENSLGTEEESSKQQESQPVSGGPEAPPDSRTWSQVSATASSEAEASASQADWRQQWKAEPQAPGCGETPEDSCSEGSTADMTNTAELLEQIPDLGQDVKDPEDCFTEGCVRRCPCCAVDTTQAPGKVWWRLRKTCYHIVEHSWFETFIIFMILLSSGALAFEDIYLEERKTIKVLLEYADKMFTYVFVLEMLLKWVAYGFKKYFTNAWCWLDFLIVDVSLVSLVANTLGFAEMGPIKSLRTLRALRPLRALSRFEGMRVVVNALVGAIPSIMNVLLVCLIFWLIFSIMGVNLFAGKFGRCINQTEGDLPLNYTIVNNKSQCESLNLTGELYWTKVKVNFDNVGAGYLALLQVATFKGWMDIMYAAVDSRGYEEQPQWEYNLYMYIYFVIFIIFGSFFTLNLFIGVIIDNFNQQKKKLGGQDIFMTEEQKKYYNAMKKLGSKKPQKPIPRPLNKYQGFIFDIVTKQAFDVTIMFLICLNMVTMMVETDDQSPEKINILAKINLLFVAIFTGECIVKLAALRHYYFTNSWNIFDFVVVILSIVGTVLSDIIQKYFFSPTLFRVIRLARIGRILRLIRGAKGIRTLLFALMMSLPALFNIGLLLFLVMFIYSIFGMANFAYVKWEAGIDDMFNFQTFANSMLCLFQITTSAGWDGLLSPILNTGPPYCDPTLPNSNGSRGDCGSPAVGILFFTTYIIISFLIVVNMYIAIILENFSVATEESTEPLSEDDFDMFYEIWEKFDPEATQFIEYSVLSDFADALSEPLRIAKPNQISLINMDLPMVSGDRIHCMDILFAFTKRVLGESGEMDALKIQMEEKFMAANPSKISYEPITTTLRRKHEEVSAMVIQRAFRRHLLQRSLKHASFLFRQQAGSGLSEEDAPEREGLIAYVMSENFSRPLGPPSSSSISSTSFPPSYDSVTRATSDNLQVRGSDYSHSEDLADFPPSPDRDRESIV

| Structure (SMILES) | AC50 [1] [µM] | AC50 [2] [µM] | AC50 (Progesterone receptor) [µM] | AC50 [3] [µM] | AC50 (Estrogen receptor) [µM] | AC50 [4] [µM] |
| --- | --- | --- | --- | --- | --- | --- |
| CCOc1nc2cccc(C(=O)O)c2n1Cc1ccc(-c2ccccc2-c2nnn[nH]2)cc1 | > 50 | > 30 | > 30 | > 30 | > 30 |  |
| CCCc1nc2c(C)cc(-c3nc4ccccc4n3C)cc2n1Cc1ccc(-c2ccccc2C(=O)O)cc1 | 27.3 | > 30 | > 30 | > 30 | > 30 | > 30 |
| CCOc1cc([C@@H](CS(C)(=O)=O)N2C(=O)c3cccc(NC(C)=O)c3C2=O)ccc1OC | > 50 |  |  | > 30 |  | > 30 |
| CC(=O)Nc1ccc(CC(=O)O)cc1 [ACTARIT] |  |  |  |  | > 30 | > 30 |
| CC(C(=O)O)c1ccc2oc(-c3ccc(Cl)cc3)nc2c1 (centres undefined) [BENOXAPROFEN] |  |  |  |  | > 30 |  |
| O=C(O)c1ccccc1 [BENZOIC ACID] | > 50 |  |  |  |  |  |
| CC1(C)S[C@@H]2[C@H](NC(=O)C(C(=O)O)c3ccccc3)C(=O)N2[C@H]1C(=O)O (some centres undefined) [CARBENICILLIN] |  |  |  | > 30 |  | > 30 |
| Cc1nnc(SCC2=C(C(=O)O)N3C(=O)[C@@H](NC(=O)Cn4cnnn4)[C@H]3SC2)s1 [CEFAZOLIN] |  |  |  | > 300 | > 30 | > 300 |
| CC=CC1=C(C(=O)O)N2C(=O)[C@@H](NC(=O)[C@H](N)c3ccc(O)cc3)[C@H]2SC1 [CEFPROZIL] |  |  |  |  | > 30 | > 30 |
| CC(C)(O/N=C(\C(=O)N[C@@H]1C(=O)N2C(C(=O)[O-])=C(C[n+]3ccccc3)CS[C@H]12)c1csc(N)n1)C(=O)O [CEFTAZIDIME] |  |  |  | > 300 | > 30 | > 300 |
| CC(C)NC(=N)NC(=N)Nc1ccc(Cl)c(Cl)c1 [CHLORPROGUANIL] |  |  |  |  |  | 10 |
| CCCNC(=O)NS(=O)(=O)c1ccc(Cl)cc1 [CHLORPROPAMIDE] |  | > 30 | > 30 |  | > 30 |  |
| C[N+](C)(C)CCOP(=O)(O)OP(=O)([O-])OC[C@H]1O[C@@H](n2ccc(N)nc2=O)[C@H](O)[C@@H]1O [CITICOLINE] |  |  |  |  |  | > 30 |
| Clc1ccc(Cn2c(CN3CCCC3)nc3ccccc32)cc1 [CLEMIZOLE] |  |  |  | > 30 |  | 13 |
| CCC(=O)O[C@]1(C(=O)CCl)[C@@H](C)C[C@H]2[C@@H]3CCC4=CC(=O)C=C[C@]4(C)[C@@]3(F)[C@@H](O)C[C@@]21C [CLOBETASOL PROPIONATE] |  |  |  | > 30 |  |  |
| Cc1nc(Nc2ncc(C(=O)Nc3c(C)cccc3Cl)s2)cc(N2CCN(CCO)CC2)n1 [DASATINIB] |  | > 10 | > 30 |  |  | > 30 |
| O=C(O)Cc1ccccc1Nc1c(Cl)cccc1Cl [DICLOFENAC] | > 30 | > 30 | > 30 |  |  |  |
| CNC[C@H](O)c1ccc(O)c(O)c1 [EPINEPHRINE] |  |  |  | > 30 |  |  |

| Structure (SMILES) | AC50 [1] [µM] | AC50 [2] [µM] | AC50 (Progesterone receptor) [µM] | AC50 [3] [µM] | AC50 (Estrogen receptor) [µM] | AC50 [4] [µM] |
| --- | --- | --- | --- | --- | --- | --- |
| O=C(O)Cc1ccccc1Oc1ccc(Cl)cc1Cl [FENCLOFENAC] |  | > 30 | > 30 |  | > 30 | > 10 |
| Cc1onc(-c2c(F)cccc2Cl)c1C(=O)N[C@@H]1C(=O)N2[C@@H]1SC(C)(C)[C@@H]2C(=O)O [FLOXACILLIN] |  |  |  | > 30 |  | > 30 |
| Cc1ccc(C)c(OCCCC(C)(C)C(=O)O)c1 [GEMFIBROZIL] |  | > 30 | > 30 |  | > 30 |  |
| COc1ccccc1OC1(C)OC(=O)c2ccccc2O1 (centres undefined) [GUAIMESAL] |  |  |  |  | > 30 |  |
| CCCCCCCN(CC)CCCC(O)c1ccc(NS(C)(=O)=O)cc1 (centres undefined) [IBUTILIDE] | > 30 |  |  |  |  | 18 |
| COc1cc(C(C)=O)ccc1OCCCN1CCC(c2noc3cc(F)ccc23)CC1 [ILOPERIDONE] |  |  |  | > 30 |  | 0.105 |
| CC[C@H](C)C(=O)O[C@H]1C[C@@H](C)C=C2C=C[C@H](C)[C@H](CC[C@@H]3C[C@@H](O)CC(=O)O3)[C@H]21 [LOVASTATIN] | > 30 | > 30 | 29.7 |  | > 30 |  |
| CC[C@@H](CO)NC(=O)[C@@H]1C=C2c3cccc4c3c(cn4C)C[C@H]2N(C)C1 [METHYSERGIDE] |  | > 30 | 16 |  | > 10 |  |
| CN1Cc2c(N)cccc2C(c2ccccc2)C1 (centres undefined) [NOMIFENSINE] |  |  |  |  |  | > 30 |
| CC(CN1c2ccccc2Sc2ccccc21)N(C)C (centres undefined) [PROMETHAZINE] |  | > 30 | > 30 |  |  |  |
| CCCc1cc(=O)[nH]c(=S)[nH]1 [PROPYLTHIOURACIL] |  |  |  |  | > 10 |  |
| Cn1cc(C(=O)[C@@H]2CCc3nc[nH]c3C2)c2ccccc21 [RAMOSETRON] |  |  |  |  | > 30 | 0.34 |
| CN(CCOc1ccc(CC2SC(=O)NC2=O)cc1)c1ccccn1 (centres undefined) [ROSIGLITAZONE] | > 30 | > 30 | > 30 |  | > 30 |  |
| S=P(N1CC1)(N1CC1)N1CC1 [THIOTEPA] |  |  |  | > 30 |  |  |
| CC(C)C[C@H](NC(=O)[C@@H](O)[C@H](N)Cc1ccccc1)C(=O)O [UBENIMEX] |  |  |  |  | > 30 |  |
| CC(C)[C@H](N)C(=O)OCCOCn1cnc2c(=O)[nH]c(N)nc21 [VALACYCLOVIR] |  | > 30 | > 30 |  | > 30 |  |
| COc1cc(C(=O)NS(=O)(=O)c2ccccc2C)ccc1Cc1cn(C)c2ccc(NC(=O)OC3CCCC3)cc12 [ZAFIRLUKAST] |  |  |  |  | > 30 |  |
| O=C1Cc2cc(CCN3CCN(c4nsc5ccccc45)CC3)c(Cl)cc2N1 [ZIPRASIDONE] | > 50 | > 30 | 21.8 |  | > 30 |  |
